Data as given in paper PMC10065791 (eLife, 2023).

Tests used:
[1] = tested on: HIV-1 NL4-3 wild-type virus; assay: Selection for resistance in CEMx174 culture with escalating inhibitor, start wild-type virus, Primer ID deep sequencing; type: cell-based
Procedure: . The selection experiments were performed under two separate starting conditions: first when the starting virus was generated from the NL4-3 clone (this clone closely approximates the clade B consensus for the protease amino acid sequence and will be referred to as ‘wild type’), then again when the starting virus was a mixture of 26 isogenic viruses each with a single mutation associated with drug resistance in the NL4-3 background. […]. For technical reasons, only five of the selections starting with the mixture of mutants reached an inhibitor concentration as high as 400 nM and are reported here (Figure 2—figure supplement 3).
Resistance mutations selected in the protease coding domain during the escalating selective pressure of increasing PI concentration were examined at various timepoints using a next-generation sequencing (NGS) protocol that included Primer ID with the MiSeq platform ([Zhou et al., 2015]). We first examined the sequence of the most abundant variant in each of the two selection schemes present at the highest inhibitor concentration reached (Figure 2A). For those selections that reached 5 μM, 8–14 mutations were present in the most abundant variant. Typically the next two most abundant variants in the population differed by a single amino acid, and on average the three most abundant variants in the 5 μM cultures accounted for 88% of the total viral population (Figure 2—source data 1). Evolution of resistance followed two pathways, one based on I50V and one based on I84V. In three cultures, V2wt, V5wt, and V2mut (which reached either 4 or 5 μM final drug concentration; V2wt indicates the virus pool selected with UMASS-2 starting with wild-type virus), these two mutations, I84V and I50V, became linked on the same genome (Figure 2A) showing they are not mutually exclusive; […].
An aliquot of 3 × 10^6 CEMx174 cells was incubated at 37°C for 2–3 hr with 250 µl of a virus stock generated from the HIV-1 infectious molecular clone pNL4-3. The culture volume was then brought to 10 ml with RPMI medium. […] After 48 hr and every 48 hr after, the cells were pelleted by centrifugation and 10 ml of fresh medium and inhibitors were added. When the culture had undergone extensive cytopathic effect (CPE) indicative of viral replication, the supernatant medium and the cells were harvested separately and stored at –80°C. The virus-containing supernatant was used to start the next round of infection, and after several rounds at the initial concentration, the inhibitor concentration was increased 1.5-fold at each subsequent round of virus passage.
We used the PID protocol to prepare MiSeq PID libraries with multiplexed primers. Viral RNA was extracted from plasma samples using the QIAamp viral RNA mini kit (QIAGEN, Hilden, Germany). Complementary DNA (cDNA) was synthesized using a cDNA primer mixture targeting protease (PR) with a block of random nucleotides in each cDNA primer serving as the PID, and SuperScript III RT (Thermo Fisher). After two rounds of bead purification of the cDNA, we amplified the cDNA using a mixture of a forward primer that targeted the upstream coding region, followed by a second round of PCR to incorporate the Illumina adaptor sequences. Gel-purified libraries were pooled and sequenced using the MiSeq 300 base paired-end sequencing protocol (Illumina). The sequencing covered the HIV-1 PR region (HXB2 2648-2914, 3001-3257).
We used the Illumina bcl2fastq pipeline for the initial processing and constructed template consensus sequences (TCSs) with TCS pipeline version 1.33 (https://github.com/SwanstromLab/PID) ([Zhou, 2019]). We then aligned TCSs to an HXB2 reference to remove sequences not at the targeted region or that had large deletions. We used the Entropy tool at LANL (https://www.hiv.lanl.gov/content/sequence/ENTROPY/entropy.html) to calculate entropy for each specimen. The sequencing data is available at NIH Sequencing Read Archive (SRA) under BioProject ID PRJNA853351.

wild-type virus NL4-3 = assay: TZM infection assay (cell culture-based viral inhibition), wild-type virus; set-up: species or system HIV-1; conditions: Human immunodeficiency virus 1, NL43; wild-type NL4-3 virus; concentration at time of virus production reducing infectivity by 50%; TZM-bl readout
Procedure: PI dilutions were prepared by taking 10 µM stocked and performing a fivefold serial dilution using RPMI media (final drug concentration is […]). One dilution of drug was added to each well of a 24-well plate and repeated so each virus would have a full set of dilutions. Viruses for the assay were made by seeding 3 × 10^6 CEM cells in a 24-well plate and incubating with 250 µl of virus at 37°C for 2–3 hr before bringing the culture to 10 ml with RPMI media. After 48 hr, the medium was changed and repeated every 48 hr after until the culture had undergone CPE. Infected CEM cells were collected and diluted so that 1 ml of cells could be plated in each well containing a unique drug dilution. Then 24 hr later the virus supernatant was collected from each well followed by filtering through a […] then placed in –80°C. Viruses were thawed and added to 96-well plates in triplicate. TZM-bl cells were collected and diluted to a concentration of 2 × 10^5 cells/ml, 100 µl were added on top of the pre-plated viruses. Plates were kept in 37°C, 5% CO2 in an incubator for 48 hr. After 48 hr, the cells in the plates were lysed by removing the medium, washing two times with 100 µl PBS, and then lysed with 1× lysis buffer (made from 5× Promega Firefly Lysis Buffer). Plates were frozen for at least 24 hr and then thawed for 2 hr before analyzing with Promega Firefly Luciferase Kit on a luminometer. Data was analyzed with Prism 7 to fit sigmoidal dose–response curves.

SMILES: CC[C@H](C)CN(C[C@@H](O)[C@H](Cc1ccccc1)NC(=O)O[C@H]1CO[C@H]2OCC[C@H]21)S(=O)(=O)c1ccc(CO)cc1 [UMASS-3]
- Abundance of variant at the last time point ([1]; variant 10F/33F/46I/47V/50V/53L/63P/71V/76S/82I, passage 93, [PI] 5000 nM): 0.9%
- Abundance of variant at the last time point ([1]; variant 10F/33F/46I/47V/50V/53L/63P/71V/76S/82I/85V/89I, passage 93, [PI] 5000 nM): 85.7%
- Abundance of variant at the last time point ([1]; variant 10F/33F/46I/47V/50V/53L/63P/71V/76S/82I/85V/89I/91S, passage 93, [PI] 5000 nM): 1.1%
- EC50 (wild-type virus NL4-3): 9.1 ± 1 nM

SMILES: CC[C@H](C)CN(C[C@@H](O)[C@H](Cc1ccccc1)NC(=O)O[C@H]1CO[C@H]2OCC[C@H]21)S(=O)(=O)c1ccc2c(c1)OCO2 [UMASS-4]
- Abundance of variant at the last time point ([1]; variant 10F/11I/13V/32I/33F/43T/46L/54L/71V/82I/84V/89M/91S/92R, passage 81, [PI] 5000 nM): 87.3%
- Abundance of variant at the last time point ([1]; variant 10F/11I/32I/33F/43T/46L/54L/71V/82I/84V/89M/91S, passage 81, [PI] 5000 nM): 1.3%
- Abundance of variant at the last time point ([1]; variant 10F/11I/32I/33F/46L/54L/71V/82I/84V/89M/91S, passage 81, [PI] 5000 nM): 1.1%
- EC50 (wild-type virus NL4-3): 3.2 ± 0.4 nM

SMILES: CC[C@H](C)CN(C[C@@H](O)[C@H](Cc1ccccc1)NC(=O)O[C@H]1CO[C@H]2OCC[C@H]21)S(=O)(=O)c1ccc2ncsc2c1 [UMASS-5]
- Abundance of variant at the last time point ([1]; variant 10F/15V/46I/47V/50V/53L/71V/82I/84V/89T, passage 77, [PI] 5000 nM): 67.9%
- Abundance of variant at the last time point ([1]; variant 10F/46I/47V/50V/53L/63P/71V/82I/84V/89M, passage 77, [PI] 5000 nM): 8.8%
- Abundance of variant at the last time point ([1]; variant 10F/46I/47V/50V/53L/71V/82I/84V/89T, passage 77, [PI] 5000 nM): 10.9%
- EC50 (wild-type virus NL4-3): 4 ± 0.5 nM

SMILES: CCC(CC)CN(C[C@@H](O)[C@H](Cc1ccccc1)NC(=O)O[C@H]1CO[C@H]2OCC[C@H]21)S(=O)(=O)c1ccc(N)cc1 [UMASS-6]
- Abundance of variant at the last time point ([1]; variant 10F/13V/16E/33F/46I/47A/50V/53L/71V, passage 46, [PI] 5000 nM): 2.2%
- Abundance of variant at the last time point ([1]; variant 10F/13V/33F/46I/47A/50V/53L/63P/71V, passage 46, [PI] 5000 nM): 42.3%
- Abundance of variant at the last time point ([1]; variant 10F/13V/33F/46I/47A/50V/53L/71V, passage 46, [PI] 5000 nM): 45.1%
- EC50 (wild-type virus NL4-3): 5.2 ± 0.8 nM

SMILES: CCC(CC)CN(C[C@@H](O)[C@H](Cc1ccccc1)NC(=O)O[C@H]1CO[C@H]2OCC[C@H]21)S(=O)(=O)c1ccc(OC)cc1 [UMASS-7]
- Abundance of variant at the last time point ([1]; variant 10F/13V/33F/46I/47V/50V/53L/54L/67Y/71V/82I, passage 76, [PI] 5000 nM): 0.2%
- Abundance of variant at the last time point ([1]; variant 10F/13V/33F/46I/47V/50V/53L/54L/71V/82I, passage 76, [PI] 5000 nM): 94.5%
- Abundance of variant at the last time point ([1]; variant 10F/13V/33F/46I/47V/50V/53L/54L/71V/82I/87K, passage 76, [PI] 5000 nM): 0.2%
- EC50 (wild-type virus NL4-3): 3.1 ± 0.5 nM

SMILES: CCC(CC)CN(C[C@@H](O)[C@H](Cc1ccccc1)NC(=O)O[C@H]1CO[C@H]2OCC[C@H]21)S(=O)(=O)c1ccc2c(c1)OCO2 [UMASS-9]
- Abundance of variant at the last time point ([1]; variant 10F/13V/33F/41K/45R/46I/47V/50V/53L/54L/66F/71V/74A/76S/82I, passage 78, [PI] 5000 nM): 0.7%
- Abundance of variant at the last time point ([1]; variant 10F/13V/33F/45R/46I/47V/50V/53L/54L/66F/71V/74A/76S/82I, passage 78, [PI] 5000 nM): 92.3%
- Abundance of variant at the last time point ([1]; variant 10F/13V/33F/45R/46I/47V/50V/53L/54L/66F/71V/74A/76S/82I/87K, passage 78, [PI] 5000 nM): 0.4%
- EC50 (wild-type virus NL4-3): 6.4 ± 1.2 nM
